In patent US20130259935A1, “PHARMACEUTICAL COMPOSITIONS COMPRISING GLIMEPIRIDE AND POLYETHYLENE GLYCOL CASTOR OIL” (LEK PHARMACEUTICALS D.D., priority 2010, published 2013):
Values after ≈ are worked out from the molar mass of the structure shown.

Test: Solubility of glimepiride, pH-dependent
Format: physicochemical
Conditions: for solubility: phosphate buffer, thermodynamic from solid
Protocol: Glimepiride has very low and pH-dependent solubility. […] In media with pH around 7 the solubility of glimepiride is 0.001 mg/mL. At a pH 8, the solubility of glimepiride only slightly increases to 0.03 mg/mL. […] Being insoluble according to the present invention means that the solubility in water is lower than 10 mg/mL. […] Solubility as meant herein is measured using USP apparatus 2 with agitation at 75 RPM. The dissolution medium is phosphate buffer maintained at 37° C. Dissolution as meant herein is measured using HPLC.

solubility (37 °C, pH 8, aqueous buffer): 30 µg/mL (≈ 61.1 µM)
solubility (aqueous buffer, acidic medium, 37° C.): < 1 µg/mL
solubility in water (in words) (water, insoluble means lower than 10 mg/mL): insoluble in water
Compound: CCC1=C(C)CN(C(=O)NCCc2ccc(S(=O)(=O)NC(=O)N[C@H]3CC[C@H](C)CC3)cc2)C1=O [glimepiride, Glimepiride]
